Data published in ChEMBL document CHEMBL4334430, “A cell-based screening system for RNA polymerase I inhibitors” (Medchemcomm, 2019).
Activity calls are given as the source filed them. The rule behind the calls is not given here.

Columns and labels:
Saccharomyces cerevisiae [1] = test: Inhibition of yeast RNA polymerase 1 in YBR140C cells expressing human RNA polymerase 1 promoter and rRNA assessed as reduction in cell growth at 126 to 2500 nM by UV-spectrophotometric analysis; type: cell-based
A2780 = test: Antiproliferative activity against human A2780 cells incubated for 4 days by MTT assay; type: functional, cell-based; details: A2780, 96 h
Saccharomyces cerevisiae [2] = test: Inhibition of yeast RNA polymerase 1 in YBR140C cells expressing human RNA polymerase 1 promoter and rRNA assessed as reduction in human rDNA transcription at 312 to 2500 nM by qRT-PCR analysis; type: cell-based
Saccharomyces cerevisiae [3] = test: Inhibition of yeast RNA polymerase 1 in YBR140C cells expressing human RNA polymerase 1 promoter and rRNA assessed as reduction in human rDNA transcription at 390 to 3120 nM by qRT-PCR analysis; type: cell-based
Saccharomyces cerevisiae [4] = test: Inhibition of yeast RNA polymerase 1 in YBR140C cells expressing human RNA polymerase 1 promoter and rRNA assessed as reduction in cell growth at 390 to 1560 nM by UV-spectrophotometric analysis; type: cell-based
NCI-H460 = test: Antiproliferative activity against human H460 cells incubated for 4 days by MTT assay; type: functional, cell-based; details: NCI-H460, 96 h

Row | IC50 (A2780) | IC50 (NCI-H460) | Compound | inhibition (Saccharomyces cerevisiae [1]) | inhibition (Saccharomyces cerevisiae [2]) | inhibition (Saccharomyces cerevisiae [3]) | inhibition (Saccharomyces cerevisiae [4])
1 | 120 nM |  | Cc1cnc(CNC(=O)c2c(=O)c3ccc(N4CCCN(C)CC4)nc3n3c2sc2ccccc23)cn1 [CX-5461] | Active | Active |  | 
2 | 700 nM | 3500 nM | COCc1c(C(C)C)nc(C(C)C)c(/C=C/[C@@H](O)C[C@@H](O)CC(=O)O)c1-c1ccc(F)cc1 [CERIVASTATIN SODIUM] |  |  | Active | Active
